Experiments:
Heliothis virescens [1] = test: Ovicidal effect on Heliothis virescens (Example B1); type: in vivo; conditions: eggs immersed in 400 ppm test solution, after 6 days, vs untreated controls
Method: Example B1: Ovicidal effect on Heliothis virescens
Eggs of Heliothis virescens laid on filter paper are immersed for a short time in an acetonic aqueous test solution containing 400 ppm of the active ingredient to be tested. After drying of the test solution, the eggs are incubated in Petri dishes. After 6 days, the percentage hatching rate of the eggs is compared with that for untreated controls (% reduction in hatching rate).

[2] = system: Diabrotica balteata larvae; test: Effect on Diabrotica balteata larvae (Example B2); type: in vivo; conditions: corn seedlings sprayed with 400 ppm, second stage larvae, six days later
Method: Example B2: Effect on Diabrotica balteata larvae
Corn seedlings are sprayed with an aqueous emulsion containing 400 ppm of active ingredient. After drying of the spray deposit, the corn seedlings are inoculated with 10 second stage larvae of Diabrotica balteata and transferred to a plastic container. Six days later they are evaluated. The percentage reduction of the population (% response) is determined by comparing the number of dead larvae on the treated plants with those on the untreated plants.

Tetranychus urticae [3] = test: Effect on Tetranychus urticae (Example B3); type: in vivo; conditions: bean plants, mixed population, sprayed with 400 ppm, 6 days at 25° C.
Method: Example B3: Effect on Tetranychus urticae
Young bean plants are inoculated with a mixed population of Tetranychus urticae and, one day later, are sprayed with an aqueous emulsion containing 400 ppm of active ingredient. The plants are incubated for 6 days at 25° C. and then evaluated. The percentage reduction of the population (% response) is determined by comparing the number of dead eggs, larvae, and adults on the treated plants with those on the untreated plants. The instantly claimed compounds show good efficacy against Tetranychus urticae in this test.

[4] = system: Heliothis virescens caterpillars; test: Effect on Heliothis virescens caterpillars (Example B4); type: in vivo; conditions: soya plants sprayed with 400 ppm, first stage caterpillars, six days later
Method: Example B4: Effect on Heliothis virescens caterpillars
(§1) Young soya plants are sprayed with an aqueous emulsion containing 400 ppm of active ingredient. After drying of the spray deposit, the soya plants are inoculated with 10 first stage caterpillars of Heliothis virescens and transferred to a plastic container. Six days later they are evaluated. The percentage reduction of the population (% response) is determined by comparing the number of dead caterpillars and the extent of feeding damage on the treated plants with those on the untreated plants.

[5] = system: Plutella xylostella caterpillars; test: Effect on Plutella xylostella caterpillars (Example B5); type: in vivo; conditions: cabbage plants sprayed with 400 ppm, third stage caterpillars, three days later
Method: Example B5: Effect on Plutella xylostella caterpillars
as §1, with “cabbage” for “soya”, “third” for “first”, “Plutella xylostella” for “Heliothis virescens”, “Three” for “Six”

Heliothis virescens [6] = test: Ovocidal/larvicidal effect on Heliothis virescens (Example B6); type: in vivo; conditions: eggs on cotton sprayed with 400 ppm, after 8 days
From the text: Example B6: Ovocidal/larvicidal effect on Heliothis virescens
Eggs of Heliothis virescens laid on cotton are sprayed with an aqueous emulsion containing 400 ppm of active ingredient. After 8 days, the percentage hatching rate of the eggs and the survival rate of the caterpillars are compared with those for untreated controls (% reduction of population)

Tetranychus urticae [7] = test: Ovicidal effect on Tetranychus urticae (Example B7); type: in vivo; conditions: bean plants colonized with eggs sprayed with 400 ppm, 6 days at 25° C.
Method: Example B7: Ovicidal effect on Tetranychus urticae
Young bean plants are inoculated with females of Tetranychus urticae, which are removed again after 24 hours. The plants colonized with eggs are sprayed with an aqueous emulsion containing 400 ppm of active ingredient. The plants are incubated for 6 days at 25° C. and then evaluated. The percentage reduction of the population (% response) is determined by comparing the number of dead eggs, larvae, and adults on the treated plants with those on the untreated plants.

[8] = system: Panonychus ulmi (resistant to organophosphates und carbaryl); test: Effect on Panonychus ulmi (Example B8); type: in vivo; conditions: apple seedlings sprayed with 400 ppm, after 14 days
Method: Example B8: Effect on Panonychus ulmi (resistant to organophosphates und carbaryl)
Apple seedlings are inoculated with adult females of Panonychus ulmi. After seven days, the infected plants are sprayed with an aqueous emulsion containing 400 ppm of the test compound until they are dripping wet, and cultivated in the greenhouse. After 14 days, they are evaluated. The percentage reduction of the population (% response) is determined by comparing the number of dead mites on the treated plants with those on the untreated plants.

Boophilus microplus = test: In vitro effect on Boophilus microplus (Example B9); conditions: ranking among test substances
Method: Example B9: In vitro effect on Boophilus microplus
Four test series each of 10 engorged female adults of Boophilus microplus are stuck to a plastic plate and covered for 1 hour with a wad of cottonwool soaked with an aqueous suspension or emulsion of the test substance. The test is carried out with concentrations of 100, 32, 10, 3.2, 1.0 and 0.32 ppm. The wad of cottonwool is then removed, and the ticks are incubated for 28 days for the eggs to be laid. The effect on Boophilus microplus is assessed according to the following 5 criteria:
1. Number of dead females (immobile with black discoloration) before egg deposition;
2. Number of ticks surviving for several days, but no eggs laid;
3. Number of cases in which eggs are laid, but nothing is hatched;
5. […] The compounds of formula (I) in this test show the effect described under point 4. […] Even at 1 ppm, a 60 to 90% suppression of the hatching rate is observed.
This test is carried out with both the BIARRA and the ULAM strain, and the results in both cases are identical.

Dermanyssus gallinae = test: In vitro effect on Dermanyssus gallinae (Example B10); conditions: ranking among test substances
Method: Example B10: In vitro effect on Dermanyssus gallinae
Ten engorged female mites of the genus Dermanyssus gallinae fixed on a plastic adhesive film are brought into contact with 50 μl of an aqueous suspension or emulsion of the test substance. The test is carried out with concentrations of 32, 10, 3.2, 1.0, 0.32 to 0.0001 ppm. After drying, the film is stuck onto a glass disc. This creates a kind of air bubble around each mite, the lower surface of which is formed by the glass disc and the upper surface by a bulging of the adhesive film. This bubble contains sufficient air for the mite to avoid suffocating. After 5 days, the effect of the test substance is evaluated with the aid of a stereomicroscope by assessing the effect on mortality, egg deposition, egg quality, hatching rate, pupation rate, and development of protonymphs according to the following 4 criteria:
1. if 9 to 10 mites are dead, this indicates a lethal effect;
3. if 2 or more mites survive and produce eggs, but no larvae hatch from these eggs and no protonymphs develop, this indicates a development-inhibiting effect;
4. if 2 or more mites survive and lay the usual number of normal eggs, from which larvae hatch and develop into protonymphs, this indicates no activity.

Fc1cccc(F)c1C1=NC(c2ccc(-c3ccc(C(F)(F)F)cc3)cc2)CO1 (stereo not shown) [Example H1-5, 2-(2,6-Difluorophenyl)-4-(4′-trifluoromethylbiphenyl-4-yl)-4,5-dihydro-oxazole]
most active test substance: activity compared with the other test substances (Boophilus microplus) | activity compared with the other test substances (Dermanyssus gallinae)
more than 80%: % reduction in hatching rate (Heliothis virescens [1]) | percentage reduction of the population (% response) [2] | percentage reduction of the population (% response) (Tetranychus urticae [3]) | percentage reduction of the population (% response) [4] | percentage reduction of the population (% response) [5] | % reduction of population (hatching rate of eggs and survival rate of caterpillars) (Heliothis virescens [6]) | percentage reduction of the population (% response) (Tetranychus urticae [7]) | percentage reduction of the population (% response) [8]

From patent publication US6413912B2, “Azoline derivatives” (Syngenta Crop Protection, Inc., priority 1997, dated 2002)
